In ChEMBL document CHEMBL1201862, “PubChem BioAssay data set” (2004):
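Compound exposure: 48 hours, 5 concentrations, 96-well plates. Abbreviation: GI50, concentration required for 50% inhibition of growth.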 Activity calls are given as the source filed them. Rule as the data show it: active = GI50 up to about 1.1 µM and inactive = higher.

Assays:
Assay in all cases: inhibition of tumour cell growth, NCI panel, 48 h
IGROV-1 = test system: IGROV-1
CAKI-1 = test system: CAKI-1
MDA-MB-231 = test system: MDA-MB-231
SK-OV-3 = test system: SK-OV-3
MCF7 = test system: MCF7
HOP-62 = test system: HOP-62
HOP-92 = test system: HOP-92
SK-MEL-28 = test system: SK-MEL-28
OVCAR-5 = test system: OVCAR-5
HCT-15 = test system: HCT-15
786-0 = test system: 786-0
HCT-116 = test system: HCT-116
OVCAR-8 = test system: OVCAR-8
OVCAR-3 = test system: OVCAR-3
Hs-578T = test system: Hs-578T
UACC-62 = test system: UACC-62
EKVX = test system: EKVX
OVCAR-4 = test system: OVCAR-4
UACC-257 = test system: UACC-257
KM12 = test system: KM12

Row | Structure (SMILES) | GI50 (IGROV-1) | GI50 (CAKI-1) | GI50 (MDA-MB-231) | GI50 (SK-OV-3) | GI50 (MCF7) | GI50 (HOP-62) | GI50 (HOP-92) | GI50 (SK-MEL-28) | GI50 (OVCAR-5) | GI50 (HCT-15) [µM] | GI50 (786-0) | GI50 (HCT-116) | GI50 (OVCAR-8) | GI50 (OVCAR-3) | GI50 (Hs-578T) | GI50 (UACC-62) | GI50 (EKVX) | GI50 (OVCAR-4) | GI50 (UACC-257) | GI50 (KM12)
1 | COc1cc2cnc(-c3ccccc3)cc2cc1OC | 19.1 µM (inactive) | 20.7 µM (inactive) | 19.1 µM (inactive) | 39.7 µM (inactive) | 18.5 µM (inactive) | 56.1 µM (inactive) | 17.5 µM (inactive) | 33.5 µM (inactive) | 33.2 µM (inactive) | 19 | 36.4 µM (inactive) | 45.6 µM (inactive) | 26.5 µM (inactive) | 24.3 µM (inactive) | 12.8 µM (inactive) | 10 µM (inactive) | 3.22 µM (inactive) | 24.3 µM (inactive) | 22.8 µM (inactive) | 26.9 µM (inactive)
2 | CC1(C)Cc2nc3c(cc2C(=O)C1/C=N/C(C#N)=C(\N)C#N)C(=O)C(/C=N/C(C#N)=C(\N)C#N)C(C)(C)C3 (stereo not given) | 1.52 µM (inactive) | 1.65 µM (inactive) | 2.82 µM (inactive) | 3.02 µM (inactive) | 2.15 µM (inactive) | 2.33 µM (inactive) | 1.7 µM (inactive) | 1.98 µM (inactive) | 2.34 µM (inactive) | 2.36 | 1.84 µM (inactive) | 1.54 µM (inactive) | 2.36 µM (inactive) | 2.77 µM (inactive) | 0.916 µM (active) | 1.83 µM (inactive) | 2.03 µM (inactive) | 4.04 µM (inactive) | 2.51 µM (inactive) | 1.77 µM (inactive)
3 | NC(=O)NO [HYDROXYUREA] | 1110 µM (inactive) | 270 µM (inactive) | > 1410 µM (inactive) | 1680 µM (inactive) | 385 µM (inactive) | 904 µM (inactive) | 895 µM (inactive) | 1920 µM (inactive) | 601 µM (inactive) | 871 | 303 µM (inactive) | 995 µM (inactive) | 504 µM (inactive) | 1240 µM (inactive) | 740 µM (inactive) | 291 µM (inactive) | 1790 µM (inactive) | 1850 µM (inactive) | 1810 µM (inactive) | 902 µM (inactive)
4 | COc1cc(/C=C2/C[C@H]3[C@@H]4CCC5=CC(=O)CC[C@]5(C)[C@H]4CC[C@]3(C)NC2=O)cc(OC)c1OC | 24.7 µM (inactive) | 25.9 µM (inactive) | 19.7 µM (inactive) | 30.7 µM (inactive) | 17.3 µM (inactive) | 27.9 µM (inactive) | 11.2 µM (inactive) | 29 µM (inactive) | 13.1 µM (inactive) | 21.5 | 48.6 µM (inactive) | 26.2 µM (inactive) | 23.7 µM (inactive) | 43.7 µM (inactive) | 23 µM (inactive) | 23.1 µM (inactive) | 24.5 µM (inactive) | 39.4 µM (inactive) | 20.7 µM (inactive) | 26.7 µM (inactive)
5 | CC(=O)/C(=C/c1ccccc1F)C(=O)c1ccccc1 | 44.2 µM (inactive) | > 100 µM (inactive) | 26.1 µM (inactive) | 34.9 µM (inactive) | 37.2 µM (inactive) | 35.2 µM (inactive) | 91.8 µM (inactive) | 53.2 µM (inactive) | > 100 µM (inactive) | 27.7 | 31.7 µM (inactive) | 27.8 µM (inactive) | 21.6 µM (inactive) | 18.6 µM (inactive) | 32.4 µM (inactive) | 37.2 µM (inactive) | 67.1 µM (inactive) | 67.8 µM (inactive) | 25.9 µM (inactive) | 30.9 µM (inactive)
6 | Cc1ccc(NC(=O)c2ccccc2C(=O)O)cc1C | > 100 µM (inactive) | > 100 µM (inactive) | > 100 µM (inactive) | > 100 µM (inactive) | > 100 µM (inactive) | > 100 µM (inactive) | > 100 µM (inactive) | > 100 µM (inactive) | > 100 µM (inactive) | > 100 | > 100 µM (inactive) | > 100 µM (inactive) | > 100 µM (inactive) | > 100 µM (inactive) | > 100 µM (inactive) | > 100 µM (inactive) | > 100 µM (inactive) | > 100 µM (inactive) | > 100 µM (inactive) | > 100 µM (inactive)
7 | CC(C#N)(c1ccccc1)N(CCc1ccccc1)C(=O)Oc1ccccc1 (stereo not given) | > 100 µM (inactive) | > 100 µM (inactive) | > 100 µM (inactive) | > 100 µM (inactive) | > 100 µM (inactive) | 50.2 µM (inactive) | 10.9 µM (inactive) | > 100 µM (inactive) | > 100 µM (inactive) | > 100 | 40.6 µM (inactive) | > 100 µM (inactive) | > 100 µM (inactive) | > 100 µM (inactive) | 35.5 µM (inactive) | > 100 µM (inactive) | > 100 µM (inactive) | 30.7 µM (inactive) | > 100 µM (inactive) | > 100 µM (inactive)
8 | O=C1c2c(Br)sc(Br)c2[C@H]2NC(=S)O[C@@H]12 | 16.7 µM (inactive) | 11.8 µM (inactive) | 17.9 µM (inactive) | 18.7 µM (inactive) | 16.1 µM (inactive) | 18 µM (inactive) | 18 µM (inactive) | 13.2 µM (inactive) | 19.2 µM (inactive) | 4.18 | 14.2 µM (inactive) | 10.7 µM (inactive) | 9.82 µM (inactive) | 7.94 µM (inactive) | 23.2 µM (inactive) | 15.7 µM (inactive) | 20.4 µM (inactive) | 17.1 µM (inactive) | 16.8 µM (inactive) | 17.9 µM (inactive)
9 | COc1ccc2c(c1)C(=O)C(=O)c1cc(O)c(OC)c(OC)c1-2 | 0.791 µM (active) | 0.918 µM (active) | 0.957 µM (active) | 1.5 µM (inactive) | 0.902 µM (active) | 0.845 µM (active) | 0.875 µM (active) | 0.845 µM (active) | 1.12 µM (inactive) | 0.91 | 0.836 µM (active) | 0.813 µM (active) | 0.875 µM (active) | 0.946 µM (active) | 1.07 µM (active) | 0.849 µM (active) | 0.979 µM (active) | 0.719 µM (active) | 0.91 µM (active) | 0.979 µM (active)
10 | COC1=CCC2=C(CCN(C(=O)C3CCC3)C2Cc2ccc(OC)c(O)c2)C1 (stereo not given) | 26.8 µM (inactive) | 30.6 µM (inactive) | 21.1 µM (inactive) | 20.5 µM (inactive) | 7.14 µM (inactive) | 14.3 µM (inactive) | 20.9 µM (inactive) | 45.3 µM (inactive) | 29.5 µM (inactive) | 4.85 | 18.2 µM (inactive) | 11.9 µM (inactive) | 37.2 µM (inactive) | 5.93 µM (inactive) | 14.6 µM (inactive) | 20.4 µM (inactive) | 25.7 µM (inactive) | 23 µM (inactive) | 17.3 µM (inactive) | 6.18 µM (inactive)
